Laboratory results taken from PMC5909127, “Optimization of a “bump-and-hole” approach to allele-selective BET bromodomain inhibition” (Chemical Science, 2018).

Tests used:
[1] = molecular target: BRD4 BD2 WT (Homo sapiens, UniProt O60885); assay: ITC; type: binding
[2] = molecular target: T1, BRD2 BD2 WT (Homo sapiens, UniProt P25440); assay: competitive AlphaLISA; type: binding
[3] = molecular target: T2, BRD4 BD1 WT (Homo sapiens, UniProt O60885); assay: competitive AlphaLISA; type: binding; conditions: AlphaLISA pIC50 Value BRD4 BD1 WT
[4] = Intrinsic Clearance; conditions: mouse liver microsomes
[5] = molecular target: T3, BRD3 BD2 WT (Homo sapiens, UniProt Q15059); assay: competitive AlphaLISA; type: binding
T3 sequence (Q15059 306-416): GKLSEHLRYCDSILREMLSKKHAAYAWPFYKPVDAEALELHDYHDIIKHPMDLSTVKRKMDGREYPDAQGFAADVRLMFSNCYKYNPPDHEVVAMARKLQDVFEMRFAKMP

[6] = test system: L/V somatic BET bromodomains; assay: ITC; conditions: L/V minus WT
[7] = molecular target: BRD2: LV/LV (Homo sapiens, UniProt P25440, L110V/L383V); assay: ITC, BRD2 tandem construct
BRD2: LV/LV, sequence (P25440 73-455 L110V/L383V limits assumed): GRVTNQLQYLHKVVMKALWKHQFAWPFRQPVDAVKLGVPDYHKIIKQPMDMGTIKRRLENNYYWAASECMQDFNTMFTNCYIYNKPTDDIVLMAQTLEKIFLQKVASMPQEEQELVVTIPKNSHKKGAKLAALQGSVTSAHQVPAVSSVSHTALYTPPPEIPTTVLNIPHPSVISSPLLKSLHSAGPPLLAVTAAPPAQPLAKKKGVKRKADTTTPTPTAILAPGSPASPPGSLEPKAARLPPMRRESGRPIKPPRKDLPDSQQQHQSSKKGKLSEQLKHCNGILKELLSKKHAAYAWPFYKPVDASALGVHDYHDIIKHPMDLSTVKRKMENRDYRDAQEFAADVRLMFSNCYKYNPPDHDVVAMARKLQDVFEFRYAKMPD

[8] = molecular target: BRDT BD1 WT (Homo sapiens, UniProt Q58F21); assay: competitive AlphaLISA; type: binding
[9] = molecular target: BRDT BD2 WT (Homo sapiens, UniProt Q58F21); assay: competitive AlphaLISA; type: binding
[10] = molecular target: BRDT BD1 L/V (Homo sapiens, UniProt Q58F21, L63V); assay: competitive AlphaLISA; type: binding
[11] = molecular target: T4, BRD2 BD2 L/V (Homo sapiens, UniProt P25440, L383V); assay: competitive AlphaLISA; type: binding
T4 sequence (P25440 344-455 L383V): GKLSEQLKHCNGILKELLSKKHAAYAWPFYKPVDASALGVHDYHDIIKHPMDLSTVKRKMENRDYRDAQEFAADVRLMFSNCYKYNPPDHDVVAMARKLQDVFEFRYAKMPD

[12] = molecular target: T5, BRD2 BD1 L/V (Homo sapiens, UniProt P25440, L110V); assay: ITC; type: binding
T5 sequence (P25440 71-176 L110V limits assumed): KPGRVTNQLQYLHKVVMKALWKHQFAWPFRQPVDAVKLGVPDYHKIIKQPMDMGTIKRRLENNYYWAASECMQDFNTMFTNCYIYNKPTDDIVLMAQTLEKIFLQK

[13] = molecular target: T6, BRD4 BD1 L/V (Homo sapiens, UniProt O60885, L94V); assay: competitive AlphaLISA; type: binding; conditions: AlphaLISA pIC50 Value BRD4 BD1 L/V
[14] = molecular target: T2, BRD4 BD1 WT; assay: ITC; type: binding
[15] = molecular target: T7, BRD4 BD2 L/V (Homo sapiens, UniProt O60885, L387V); assay: competitive AlphaLISA; type: binding
[16] = test system: L/V BET bromodomains (BD1 and BD2 of BRD2, BRD3 and BRD4); assay: competitive AlphaLISA (Bio-JQ1 displacement); type: binding, human; conditions: L/V minus WT
[17] = molecular target: T8, BRD3 BD1 L/V (Homo sapiens, UniProt Q15059, L70V); assay: ITC; type: binding
T8 sequence (Q15059 24-144 L70V limits assumed): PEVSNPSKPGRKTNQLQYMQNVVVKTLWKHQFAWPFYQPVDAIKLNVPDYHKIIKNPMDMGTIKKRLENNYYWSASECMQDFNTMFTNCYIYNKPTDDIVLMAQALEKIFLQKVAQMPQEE

[18] = molecular target: BRD2 BD1 WT (Homo sapiens, UniProt P25440); assay: ITC; type: binding; conditions: ITC
BRD2 BD1 WT, sequence (P25440 71-176): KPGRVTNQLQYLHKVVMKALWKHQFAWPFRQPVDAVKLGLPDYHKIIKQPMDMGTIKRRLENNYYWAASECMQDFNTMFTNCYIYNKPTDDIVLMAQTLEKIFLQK

[19] = molecular target: BRD2: WT/WT (Homo sapiens, UniProt P25440); assay: ITC, BRD2 tandem construct
BRD2: WT/WT, sequence (P25440 73-455): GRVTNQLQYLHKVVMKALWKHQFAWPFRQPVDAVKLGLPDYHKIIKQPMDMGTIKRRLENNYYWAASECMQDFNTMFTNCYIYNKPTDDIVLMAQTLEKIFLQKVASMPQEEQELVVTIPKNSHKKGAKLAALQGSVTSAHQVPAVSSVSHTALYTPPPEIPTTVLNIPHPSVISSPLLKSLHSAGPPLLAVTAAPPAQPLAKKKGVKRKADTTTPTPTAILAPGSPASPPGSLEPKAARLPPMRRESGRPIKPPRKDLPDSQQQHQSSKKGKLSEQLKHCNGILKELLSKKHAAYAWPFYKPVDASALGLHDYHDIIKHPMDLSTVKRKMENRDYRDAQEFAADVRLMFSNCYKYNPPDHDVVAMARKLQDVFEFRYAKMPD

[20] = molecular target: T1, BRD2 BD2 WT; assay: ITC; type: binding
[21] = molecular target: T5, BRD2 BD1 L/V; assay: competitive AlphaLISA; type: binding
[22] = molecular target: T4, BRD2 BD2 L/V; assay: ITC; type: binding
[23] = molecular target: BRD2: WT/LV (Homo sapiens, UniProt P25440, L383V); assay: ITC, BRD2 tandem construct
BRD2: WT/LV, sequence (P25440 73-455 L383V): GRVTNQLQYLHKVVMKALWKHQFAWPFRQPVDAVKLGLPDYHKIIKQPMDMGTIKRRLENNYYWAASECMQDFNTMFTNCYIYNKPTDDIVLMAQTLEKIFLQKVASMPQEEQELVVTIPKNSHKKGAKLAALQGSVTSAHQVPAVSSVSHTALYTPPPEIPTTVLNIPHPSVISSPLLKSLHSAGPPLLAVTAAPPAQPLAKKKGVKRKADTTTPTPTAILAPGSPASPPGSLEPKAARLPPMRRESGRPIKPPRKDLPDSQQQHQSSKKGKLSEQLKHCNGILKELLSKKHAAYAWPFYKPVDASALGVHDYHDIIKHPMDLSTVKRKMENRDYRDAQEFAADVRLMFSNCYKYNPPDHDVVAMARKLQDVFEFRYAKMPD

[24] = in vitro; conditions: PAMPA, pH 7.4
[25] = Plasma Half-life; conditions: BALB/c, mouse, pH 7.4
[26] = molecular target: T9, BRD3 BD1 WT (Homo sapiens, UniProt Q15059); assay: ITC; type: binding
T9 sequence (Q15059 24-144): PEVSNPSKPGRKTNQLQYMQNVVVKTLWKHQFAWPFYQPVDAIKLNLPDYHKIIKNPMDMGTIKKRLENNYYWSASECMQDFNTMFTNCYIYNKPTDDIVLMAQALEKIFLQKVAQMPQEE

[27] = molecular target: WT somatic BET bromodomains; assay: ITC; conditions: mean and SD of all somatic bromodomains
[28] = molecular target: T9, BRD3 BD1 WT; assay: competitive AlphaLISA; type: binding
[29] = molecular target: T6, BRD4 BD1 L/V; assay: ITC; type: binding; conditions: ITC
[30] = molecular target: T7, BRD4 BD2 L/V; assay: ITC; type: binding
[31] = molecular target: WT BET bromodomains (BD1 and BD2 of BRD2, BRD3 and BRD4); assay: competitive AlphaLISA (Bio-JQ1 displacement); type: binding, human; conditions: mean and SD of all somatic bromodomains; active enantiomer concentration
[32] = molecular target: T10, BRD3 BD2 L/V (Homo sapiens, UniProt Q15059, L345V); assay: competitive AlphaLISA; type: binding
T10 sequence (Q15059 306-416 L345V limits assumed): as the sequence (Q15059 306-416) above, with L40V counted along it

[33] = molecular target: BRD2: LV/WT (Homo sapiens, UniProt P25440, L110V); assay: ITC, BRD2 tandem construct
BRD2: LV/WT, sequence (P25440 73-455 L110V limits assumed): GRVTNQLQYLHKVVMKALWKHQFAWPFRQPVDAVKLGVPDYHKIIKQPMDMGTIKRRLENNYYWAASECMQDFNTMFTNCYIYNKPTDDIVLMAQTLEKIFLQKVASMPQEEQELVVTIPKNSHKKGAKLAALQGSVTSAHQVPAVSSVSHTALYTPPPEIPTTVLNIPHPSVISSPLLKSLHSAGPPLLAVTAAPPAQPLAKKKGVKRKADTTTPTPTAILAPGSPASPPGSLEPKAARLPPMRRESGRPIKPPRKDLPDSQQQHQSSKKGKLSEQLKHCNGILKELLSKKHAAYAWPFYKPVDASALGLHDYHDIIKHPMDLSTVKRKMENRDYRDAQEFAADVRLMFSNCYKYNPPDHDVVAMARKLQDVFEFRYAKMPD

[34] = molecular target: T10, BRD3 BD2 L/V; assay: ITC; type: binding
[35] = molecular target: T8, BRD3 BD1 L/V; assay: competitive AlphaLISA; type: binding
[36] = molecular target: T3, BRD3 BD2 WT; assay: ITC; type: binding

T1 sequence (P25440 344-455): as the sequence (P25440 344-455 L383V) above, with V40L counted along it

Which Kd [1] does the source give for CC[C@@H](C(=O)OC)[C@@H]1N=C(c2ccc(Cl)cc2)c2cc(OC)ccc2-n2c(C)nnc21 (relative stereo) [Compound 4] here?
The Kd was 35000 nM.

What about the “ΔH BRD4 BD2 WT” value ([1]; ITC) of the same molecule?
Its value is -3.4 kcal/mol.

What about the IC50 [2] of the same molecule?
Its IC50 is 10000 nM.

What about the IC50 [3] of the same molecule?
Its IC50 is 7940 nM.

And the CL int [4]?
Its CL int is 1.5 ml min^–1 g^–1.

What about the IC50 [5] of the same molecule?
Its IC50 is 10000 nM.

What about the “ITC pKd ± SD Δ” value [6] of the same molecule?
Its value is 1.8 ± 0.4.

What about the Kd [7] of the same molecule?
The Kd was 140 ± 10 nM.

And the IC50 [8]?
Its IC50 is 15800 nM.

What about the IC50 [9] of the same molecule?
Its IC50 is 15800 nM.

What about the IC50 [10] of the same molecule?
The IC50 was 501 nM.

What about the IC50 [11] of the same molecule?
The IC50 was 158 nM.

What about the Kd [12] of the same molecule?
The Kd was 240 nM.

And the “ΔH BRD2 BD1 L/V” value ([12]; ITC)?
The value was -12.6 kcal/mol.

And the IC50 [13]?
Its IC50 is 251 nM.

What about the Kd [14] of the same molecule?
The Kd was 2500 nM.

What about the “ΔH BRD4 BD1 WT” value ([14]; ITC) of the same molecule?
The value was -2.6 kcal/mol.

And the “N BRD4 BD1 WT” value ([14]; ITC stoichiometry)?
Its value is 0.99.

What about the IC50 [15] of the same molecule?
The IC50 was 251 nM.

What about the “AlphaLISA pIC50 ± SD Δ” value [16] of the same molecule?
Its value is 1.7 ± 0.2.

What about the Kd [17] of the same molecule?
Its Kd is 80 nM.

What about the “ΔH BRD3 BD1 L/V” value ([17]; ITC) of the same molecule?
Its value is -14.1 kcal/mol.

What about the “ΔH BRD2 BD1 WT” value [18] of the same molecule?
Its value is -5.3 kcal/mol.

And the Kd [19]?
The Kd was 3800 ± 1100 nM.

What about the Kd [20] of the same molecule?
The Kd was 3300 nM.

What about the “ΔH BRD2 BD2 WT” value ([20]; ITC) of the same molecule?
Its value is -1.2 kcal/mol.

What about the “N BRD2 BD2 WT” value ([20]; ITC stoichiometry) of the same molecule?
The value was 0.91.

And the IC50 [21]?
Its IC50 is 316 nM.

What about the Kd [22] of the same molecule?
Its Kd is 50 nM.

What about the “ΔH BRD2 BD2 L/V” value ([22]; ITC) of the same molecule?
The value was -8.5 kcal/mol.

And the Kd [23]?
The Kd was 620 ± 110 nM.

And the Papp [24]?
Its Papp is 15.3 ×10⁻⁶ cm/s.

And the half-life at 50 µM [25]?
The half-life at 50 µM was > 3 h.

What about the Kd [26] of the same molecule?
The Kd was 3300 nM.

And the “ΔH BRD3 BD1 WT” value ([26]; ITC)?
Its value is -4.9 kcal/mol.

What about the “N BRD3 BD1 WT” value ([26]; ITC stoichiometry) of the same molecule?
Its value is 0.81.

What about the “ITC pKd ± SD WT” value [27] of the same molecule?
The value was 5.1 ± 0.5.

And the IC50 [28]?
The IC50 was 6310 nM.

What about the “ΔH BRD4 BD1 L/V” value [29] of the same molecule?
The value was -10.3 kcal/mol.

And the Kd ([29]; Kd BRD4 BD1 L/V, 30°C)?
The Kd was 160 nM.

And the Kd [30]?
Its Kd is 330 nM.

What about the “ΔH BRD4 BD2 L/V” value ([30]; ITC) of the same molecule?
Its value is -7.9 kcal/mol.

What about the “AlphaLISA pIC50 ± SD WT” value [31] of the same molecule?
Its value is 5.0 ± 0.1.

What about the IC50 [32] of the same molecule?
The IC50 was 100 nM.

What about the Kd [33] of the same molecule?
Its Kd is 570 ± 50 nM.

What about the Kd [34] of the same molecule?
Its Kd is 100 nM.

What about the “ΔH BRD3 BD2 L/V” value ([34]; ITC) of the same molecule?
Its value is -9.5 kcal/mol.

What about the IC50 [35] of the same molecule?
Its IC50 is 100 nM.

And the “ΔH BRD3 BD2 WT” value ([36]; ITC)?
The value was -3.8 kcal/mol.

And the “N BRD3 BD2 WT” value ([36]; ITC stoichiometry)?
Its value is 0.85.
